How the values were obtained:
[1] = tested on: Mycobacterium tuberculosis Erdman (autoluminescent); test: total FIC50 (Loewe) at 50% inhibition, three-drug combination (log2); higher = more antagonistic
Protocol: (§1)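 DiaMOND equipotent three-drug combination dose responses (10 doses, 1.5- or 2-fold spacing, centred on IC90) against autoluminescent M. tuberculosis Erdman in 8 in vitro models. Read-out is OD600, or luminescence for the intracellular and dormancy models, normalised to untreated wells. Hill-fit Einf, AUC25 and GRinf are potency metrics; FIC50 and FIC90 are total Loewe fractional inhibitory concentrations as log2 (negative = synergy).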

[2] = tested on: Mycobacterium tuberculosis Erdman (autoluminescent); test: total FIC90 (Loewe) at 90% inhibition, three-drug combination (log2); higher = more antagonistic
Protocol: as §1

[3] = tested on: Mycobacterium tuberculosis Erdman (autoluminescent); test: Einf, fitted maximum growth inhibition of three-drug combination (fraction); higher = stronger maximal inhibition
Protocol: as §1

[4] = tested on: Mycobacterium tuberculosis Erdman (autoluminescent); test: AUC25, normalised area under dose response up to IC25 (three-drug combination) (fraction (0-1)); higher = more potent at low dose
Protocol: as §1

[5] = tested on: Mycobacterium tuberculosis Erdman (autoluminescent); test: GRinf, maximum normalised growth rate inhibition (three-drug combination) (unitless (-1 to 1)); higher = less effect (negative = killing)
Protocol: as §1

CC(C)/N=c1\cc2n(-c3ccc(Cl)cc3)c3ccccc3nc-2cc1Nc1ccc(Cl)cc1 [clofazimine] + COc1c(N2C[C@@H]3CCCN[C@@H]3C2)c(F)cc2c(=O)c(C(=O)O)cn(C3CC3)c12 [moxifloxacin] + CO[C@H]1/C=C/O[C@@]2(C)Oc3c(C)c(O)c4c(O)c(c(/C=N/N5CCN(C6CCCC6)CC5)c(O)c4c3C2=O)NC(=O)/C(C)=C\C=C\[C@H](C)[C@H](O)[C@@H](C)[C@@H](O)[C@@H](C)[C@H](OC(C)=O)[C@@H]1C [rifapentine]
Details | AUC25, [4] | Einf, [3] | GRinf, [5] | total FIC50, [1] | total FIC90, [2]
in vitro model: acidic pH 5.7, time point: constant (~7 days, model-specific) | 0.0597 | 0.791 | 0.0664 | 0.757 | –
in vitro model: acidic pH 5.7, time point: terminal (~4-5 doublings, model-specific) | 0.0785 | 0.994 | -0.157 | 0.662 | 0.776
in vitro model: intracellular J774, time point: constant = terminal | – | 0.896 | -0.177 | – | 0.705

Details | AUC25, [4] | Einf, [3] | GRinf, [5] | total FIC50, [1] | total FIC90, [2]
in vitro model: butyrate, time point: constant (~7 days, model-specific) | 0.109 | 0.951 | -0.179 | 0.683 | 0.815
in vitro model: butyrate, time point: terminal (~4-5 doublings, model-specific) | 0.0865 | 0.976 | -0.126 | 0.677 | 0.878
in vitro model: cholesterol 0.05 mM, time point: constant (~7 days, model-specific) | 0.117 | 0.651 | -0.0835 | 0.506 | –
in vitro model: cholesterol 0.05 mM, time point: terminal (~4-5 doublings, model-specific) | 0.106 | 0.826 | 0.0322 | 1.24 | 0.476
in vitro model: cholesterol-high 0.2 mM, time point: constant (~7 days, model-specific) | 0.122 | 0.933 | -0.651 | 0.36 | 0.939
in vitro model: cholesterol-high 0.2 mM, time point: terminal (~4-5 doublings, model-specific) | 0.0999 | 1 | -0.936 | 0.593 | 0.687
in vitro model: dormancy (butyrate + nitrate, low O2), time point: constant (~7 days, model-specific) | 0.0884 | 0.916 | 0.189 | 0.695 | 0.16
in vitro model: dormancy (butyrate + nitrate, low O2), time point: terminal (~4-5 doublings, model-specific) | 0.0815 | 0.985 | -0.35 | 0.807 | 1.55
in vitro model: standard 7H9 glycerol, time point: constant = terminal | 0.11 | 0.961 | -0.153 | 0.103 | 0.69
in vitro model: valerate, time point: constant (~7 days, model-specific) | 0.121 | 0.922 | -0.0961 | 0.866 | –
in vitro model: valerate, time point: terminal (~4-5 doublings, model-specific) | 0.0636 | 0.937 | 0.0037 | 0.401 | 0.131

CC(C)/N=c1\cc2n(-c3ccc(Cl)cc3)c3ccccc3nc-2cc1Nc1ccc(Cl)cc1 [clofazimine] + COc1c(N2C[C@@H]3CCCN[C@@H]3C2)c(F)cc2c(=O)c(C(=O)O)cn(C3CC3)c12 [moxifloxacin] + CO[C@H]1/C=C/O[C@@]2(C)Oc3c(C)c(O)c4c(O)c(c(/C=N/N5CCN(C)CC5)c(O)c4c3C2=O)NC(=O)/C(C)=C\C=C\[C@H](C)[C@H](O)[C@@H](C)[C@@H](O)[C@@H](C)[C@H](OC(C)=O)[C@@H]1C [rifampicin]
Details | AUC25, [4] | Einf, [3] | GRinf, [5] | total FIC50, [1] | total FIC90, [2]
in vitro model: acidic pH 5.7, time point: constant (~7 days, model-specific) | 0.0543 | 0.794 | 0.0586 | 0.584 | –
in vitro model: acidic pH 5.7, time point: terminal (~4-5 doublings, model-specific) | 0.0718 | 0.984 | -0.141 | 0.552 | 0.413
in vitro model: intracellular J774, time point: constant = terminal | – | 0.971 | -0.31 | – | 0.881

Details | AUC25, [4] | Einf, [3] | GRinf, [5] | total FIC50, [1] | total FIC90, [2]
in vitro model: butyrate, time point: constant (~7 days, model-specific) | 0.118 | 0.961 | -0.195 | 0.632 | 0.476
in vitro model: butyrate, time point: terminal (~4-5 doublings, model-specific) | 0.0964 | 0.979 | -0.129 | 0.441 | 0.673
in vitro model: cholesterol 0.05 mM, time point: constant (~7 days, model-specific) | 0.111 | 0.622 | 0.0422 | 1.52 | –
in vitro model: cholesterol 0.05 mM, time point: terminal (~4-5 doublings, model-specific) | 0.0951 | 0.89 | -0.0588 | 1.22 | -0.407
in vitro model: cholesterol-high 0.2 mM, time point: constant (~7 days, model-specific) | 0.119 | 0.887 | -0.695 | 1.08 | 1.19
in vitro model: cholesterol-high 0.2 mM, time point: terminal (~4-5 doublings, model-specific) | 0.0965 | 1 | -1 | 1.33 | 1.21
in vitro model: dormancy (butyrate + nitrate, low O2), time point: constant (~7 days, model-specific) | 0.0851 | 0.924 | 0.135 | 0.282 | -0.619
in vitro model: dormancy (butyrate + nitrate, low O2), time point: terminal (~4-5 doublings, model-specific) | 0.108 | 0.991 | -0.361 | -0.142 | 1.27
in vitro model: standard 7H9 glycerol, time point: constant = terminal | 0.128 | 0.975 | -0.0863 | -0.17 | –
in vitro model: valerate, time point: constant (~7 days, model-specific) | 0.104 | 0.907 | -0.0605 | 1.12 | –
in vitro model: valerate, time point: terminal (~4-5 doublings, model-specific) | 0.075 | 0.948 | 0.0195 | 0.91 | 1.97

CC(C)/N=c1\cc2n(-c3ccc(Cl)cc3)c3ccccc3nc-2cc1Nc1ccc(Cl)cc1 [clofazimine] + COc1c(N2C[C@@H]3CCCN[C@@H]3C2)c(F)cc2c(=O)c(C(=O)O)cn(C3CC3)c12 [moxifloxacin] + NC(=O)c1cnccn1 [pyrazinamide]
Details | AUC25, [4] | Einf, [3] | GRinf, [5] | total FIC50, [1] | total FIC90, [2]
in vitro model: acidic pH 5.7, time point: constant (~7 days, model-specific) | 0.0994 | 0.605 | -0.618 | 0.273 | –
in vitro model: acidic pH 5.7, time point: terminal (~4-5 doublings, model-specific) | 0.0958 | 0.951 | -0.261 | -0.216 | -0.195
in vitro model: intracellular J774, time point: constant = terminal | – | 0.975 | -0.333 | – | 0.42

Details | AUC25, [4] | Einf, [3] | GRinf, [5] | total FIC50, [1] | total FIC90, [2]
in vitro model: butyrate, time point: constant (~7 days, model-specific) | 0.127 | 0.968 | -0.193 | -0.173 | 0.847
in vitro model: butyrate, time point: terminal (~4-5 doublings, model-specific) | 0.0926 | 0.973 | -0.0738 | -0.0902 | 0.342
in vitro model: cholesterol 0.05 mM, time point: constant (~7 days, model-specific) | 0.129 | 0.646 | -0.114 | – | –
in vitro model: cholesterol 0.05 mM, time point: terminal (~4-5 doublings, model-specific) | 0.112 | 0.927 | -0.137 | 0.91 | –
in vitro model: cholesterol-high 0.2 mM, time point: constant (~7 days, model-specific) | 0.108 | 0.882 | -0.3 | 0.275 | –
in vitro model: cholesterol-high 0.2 mM, time point: terminal (~4-5 doublings, model-specific) | 0.0989 | 0.998 | -0.761 | 0.347 | 0.272
in vitro model: dormancy (butyrate + nitrate, low O2), time point: constant (~7 days, model-specific) | 0.113 | 0.919 | 0.162 | -0.332 | -0.522
in vitro model: dormancy (butyrate + nitrate, low O2), time point: terminal (~4-5 doublings, model-specific) | 0.0767 | 0.992 | -0.202 | 0.182 | 0.297
in vitro model: standard 7H9 glycerol, time point: constant = terminal | 0.111 | 0.974 | -0.232 | – | –
in vitro model: valerate, time point: constant (~7 days, model-specific) | 0.122 | 0.852 | -0.0384 | 0.546 | –
in vitro model: valerate, time point: terminal (~4-5 doublings, model-specific) | 0.067 | 0.914 | 0.0776 | 0.292 | 0.85

CC(C)/N=c1\cc2n(-c3ccc(Cl)cc3)c3ccccc3nc-2cc1Nc1ccc(Cl)cc1 [clofazimine] + COc1c(N2C[C@@H]3CCCN[C@@H]3C2)c(F)cc2c(=O)c(C(=O)O)cn(C3CC3)c12 [moxifloxacin] + O=[N+]([O-])c1cn2c(n1)OC[C@@H](OCc1ccc(OC(F)(F)F)cc1)C2 [pretomanid]
Details | AUC25, [4] | Einf, [3] | GRinf, [5] | total FIC50, [1] | total FIC90, [2]
in vitro model: acidic pH 5.7, time point: constant (~7 days, model-specific) | 0.111 | 0.66 | -0.331 | 0.779 | –
in vitro model: acidic pH 5.7, time point: terminal (~4-5 doublings, model-specific) | 0.0647 | 0.93 | -0.186 | 0.34 | 0.287
in vitro model: intracellular J774, time point: constant = terminal | – | 0.981 | -0.328 | – | -0.136

Details | AUC25, [4] | Einf, [3] | GRinf, [5] | total FIC50, [1] | total FIC90, [2]
in vitro model: butyrate, time point: constant (~7 days, model-specific) | 0.114 | 0.945 | -0.41 | 0.567 | 2.06
in vitro model: butyrate, time point: terminal (~4-5 doublings, model-specific) | 0.101 | 0.989 | -0.286 | 0.561 | 1.3
in vitro model: cholesterol 0.05 mM, time point: constant (~7 days, model-specific) | 0.112 | 0.707 | -0.152 | 0.31 | –
in vitro model: cholesterol 0.05 mM, time point: terminal (~4-5 doublings, model-specific) | 0.104 | 0.908 | -0.0989 | 0.933 | 0.0471
in vitro model: cholesterol-high 0.2 mM, time point: constant (~7 days, model-specific) | 0.108 | 0.921 | -0.386 | 0.526 | 2.16
in vitro model: cholesterol-high 0.2 mM, time point: terminal (~4-5 doublings, model-specific) | 0.111 | 1 | -0.905 | 0.181 | 0.651
in vitro model: dormancy (butyrate + nitrate, low O2), time point: constant (~7 days, model-specific) | 0.096 | 0.958 | 0.184 | 0.193 | -0.0601
in vitro model: dormancy (butyrate + nitrate, low O2), time point: terminal (~4-5 doublings, model-specific) | 0.0701 | 0.981 | -0.138 | 0.461 | 0.601
in vitro model: standard 7H9 glycerol, time point: constant = terminal | 0.112 | 0.974 | -0.306 | -0.121 | 0.463
in vitro model: valerate, time point: constant (~7 days, model-specific) | 0.117 | 0.881 | -0.0836 | 0.973 | –
in vitro model: valerate, time point: terminal (~4-5 doublings, model-specific) | 0.0939 | 0.934 | -0.0367 | 0.371 | -0.0804

From the supplement of paper PMC8617591
